≈ marks a conversion by molar mass, not a printed value.
Key:
60 cancer cell lines = assay: NCI-60 one-dose screen (10 μM); type: cell-based; conditions: Homo sapiens; one dose of 10 μM, mean over 60 cancer cell lines; read-out: Mean Growth Percent (MGP)
Excerpt: Additionally, the mean of the growth percentages (MGP) of each compound against all the 60 cancer cell lines is also reported, which is used as one of the selection criteria to continue with tests at five concentration doses.

[1] = test system: M. tuberculosis ATCC 27294; assay: Antitubercular broth microdilution MIC; type: cell-based; conditions: Mycobacterium tuberculosis; M. tuberculosis ATCC 27294 (H37Rv); read-out: Minimum inhibitory concentration (MIC)
[2] = Hemolytic activity, spectrophotometric; type: cell-based, human; conditions: human, human red blood cells (huRBC), 5% hematocrit, 200 μg/mL, 37 °C
RPMI-8226 = assay: cells; conditions: Homo sapiens, RPMI-8226, 48 h; for CC50: read-out: LC50
HOP-62 = assay: cells; conditions: Homo sapiens, HOP-62, 48 h; for CC50: read-out: LC50
NCI-H226 = assay: cells; conditions: Homo sapiens, NCI-H226, 48 h; for CC50: read-out: LC50
NCI-H23 = assay: cells; conditions: Homo sapiens, NCI-H23, 48 h; for CC50: read-out: LC50
NCI-H322M = assay: cells; conditions: Homo sapiens, 48 h; for CC50: read-out: LC50
HCT-15 = assay: cells; conditions: Homo sapiens, HCT-15, 48 h; for CC50: read-out: LC50
SW-620 = assay: cells; conditions: Homo sapiens, SW-620, 48 h; for CC50: read-out: LC50
SF-295 = assay: cells; conditions: Homo sapiens, SF-295, 48 h; for CC50: read-out: LC50
MALME-3M = assay: cells; conditions: Homo sapiens, 48 h; for CC50: read-out: LC50
MDA-MB-435 = assay: cells; conditions: Homo sapiens, MDA-MB-435, 48 h; for CC50: read-out: LC50
IGROV1 = assay: cells; conditions: Homo sapiens, IGROV-1, 48 h; for CC50: read-out: LC50
OVCAR-4 = assay: cells; conditions: Homo sapiens, OVCAR-4, 48 h; for CC50: read-out: LC50
OVCAR-5 = assay: cells; conditions: Homo sapiens, OVCAR-5, 48 h; for CC50: read-out: LC50
OVCAR-8 = assay: cells; conditions: Homo sapiens, OVCAR-8, 48 h; for CC50: read-out: LC50
NCI/ADR-RES = assay: cells; conditions: Homo sapiens, 48 h; for CC50: read-out: LC50
SK-OV-3 = assay: cells; conditions: Homo sapiens, SK-OV-3, 48 h; for CC50: read-out: LC50
ACHN = assay: cells; conditions: Homo sapiens, 48 h; for CC50: read-out: LC50
RXF 393 = assay: cells; conditions: Homo sapiens, RXF 393, 48 h; for CC50: read-out: LC50
TK-10 = assay: cells; conditions: Homo sapiens, TK-10, 48 h; for CC50: read-out: LC50
DU-145 = assay: cells; conditions: Homo sapiens, DU-145, 48 h; for CC50: read-out: LC50
MCF7 = assay: cells; conditions: Homo sapiens, MCF7, 48 h; for CC50: read-out: LC50
BT-549 = assay: cells; conditions: Homo sapiens, BT-549, 48 h; for CC50: read-out: LC50
SR = assay: cells; conditions: Homo sapiens, 48 h

CN(C)c1nc(NCCNS(=O)(=O)c2ccc(C(=O)/C=C/c3ccc(F)cc3)cc2)nc(Nc2ccc(F)cc2)n1 [24f]
activity at 10 µM (60 cancer cell lines): -70.5% | MIC [1]: 25 µg/mL (≈ 43.1 µM) | hemolysis at 24 h, 200 µg/mL [2]: 9.9% | GI50 (RPMI-8226): 2.42 µM | CC50 (RPMI-8226): 6.92 µM | GI50 (HOP-62): 8.39 µM | CC50 (HOP-62): 23.5 µM | GI50 (NCI-H226): 3.41 µM | CC50 (NCI-H226): 16.4 µM | GI50 (NCI-H23): 4.17 µM | CC50 (NCI-H23): 15.6 µM | GI50 (NCI-H322M): 4.24 µM | CC50 (NCI-H322M): 17.8 µM | GI50 (HCT-15): 1.99 µM | CC50 (HCT-15): 4.28 µM | GI50 (SW-620): 1.9 µM | CC50 (SW-620): 4.02 µM | GI50 (SF-295): 3.4 µM | CC50 (SF-295): 13 µM | GI50 (MALME-3M): 3.42 µM | CC50 (MALME-3M): 12.4 µM | GI50 (MDA-MB-435): 2.32 µM | CC50 (MDA-MB-435): 5.69 µM | GI50 (IGROV1): 4.27 µM | CC50 (IGROV1): 15 µM | GI50 (OVCAR-4): 3.68 µM | CC50 (OVCAR-4): 15.6 µM | GI50 (OVCAR-5): 3.39 µM | CC50 (OVCAR-5): 15 µM | GI50 (OVCAR-8): 3.42 µM | CC50 (OVCAR-8): 13.9 µM | GI50 (NCI/ADR-RES): 3.25 µM | CC50 (NCI/ADR-RES): 11.6 µM | GI50 (SK-OV-3): 8.23 µM | CC50 (SK-OV-3): 21.6 µM | GI50 (ACHN): 3.13 µM | CC50 (ACHN): 10.9 µM | GI50 (RXF 393): 2.26 µM | CC50 (RXF 393): 7.51 µM | GI50 (TK-10): 4.62 µM | CC50 (TK-10): 16.6 µM | GI50 (DU-145): 3.94 µM | CC50 (DU-145): 14 µM | GI50 (MCF7): 1.8 µM | CC50 (MCF7): 3.46 µM | GI50 (BT-549): 4.87 µM | CC50 (BT-549): 17.1 µM

Cc1ccc(/C=C/C(=O)c2ccc(S(=O)(=O)NCCNc3nc(Nc4ccc(F)cc4)nc(N(C)C)n3)cc2)cc1 [24b]
activity at 10 µM (60 cancer cell lines): 16.5% | MIC [1]: 25 µg/mL (≈ 43.4 µM) | hemolysis at 24 h, 200 µg/mL [2]: 1.2% | GI50 (RPMI-8226): 2.73 µM | CC50 (RPMI-8226): > 100 µM | GI50 (SR): 2.76 µM | CC50 (SR; read-out: LC50): > 100 µM | GI50 (HOP-62): 15.3 µM | CC50 (HOP-62): 64.8 µM | GI50 (NCI-H226): 10.4 µM | CC50 (NCI-H226): 63.9 µM | GI50 (NCI-H23): 11.3 µM | CC50 (NCI-H23): 50 µM | GI50 (NCI-H322M): 11.8 µM | CC50 (NCI-H322M): 62.5 µM | GI50 (HCT-15): 3.92 µM | CC50 (HCT-15): 35.3 µM | GI50 (SW-620): 7.53 µM | CC50 (SW-620): 49.4 µM | GI50 (SF-295): 11.5 µM | CC50 (SF-295): 49.2 µM | GI50 (MALME-3M): 16.4 µM | CC50 (MALME-3M): 60.9 µM | GI50 (MDA-MB-435): 6.03 µM | CC50 (MDA-MB-435): 61.7 µM | GI50 (IGROV1): 15.1 µM | CC50 (IGROV1): 63.6 µM | GI50 (OVCAR-4): 7.79 µM | CC50 (OVCAR-4): > 100 µM | GI50 (OVCAR-5): 14.9 µM | CC50 (OVCAR-5): 53.7 µM | GI50 (OVCAR-8): 13 µM | CC50 (OVCAR-8): 56 µM | GI50 (NCI/ADR-RES): 8.4 µM | CC50 (NCI/ADR-RES): 47.1 µM | GI50 (SK-OV-3): 17 µM | CC50 (SK-OV-3): > 100 µM | GI50 (ACHN): 6.31 µM | CC50 (ACHN): 44.1 µM | GI50 (RXF 393): 4.98 µM | CC50 (RXF 393): 44.9 µM | GI50 (TK-10): 15.2 µM | CC50 (TK-10): 61.9 µM | GI50 (DU-145): 14 µM | CC50 (DU-145): 74.8 µM | GI50 (MCF7): 2.01 µM | CC50 (MCF7): 25.2 µM | GI50 (BT-549): 15.7 µM | CC50 (BT-549): 57.8 µM

Source: publication PMC11012124, “Synthesis of Novel Triazine-Based Chalcones and 8,9-dihydro-7H-pyrimido[4,5-b][1,4]diazepines as Potential Leads in the Search of Anticancer, Antibacterial and Antifungal Agents” (International Journal of Molecular Sciences, 2024)
